pKi: −log10 of the molar value. Values joined by “and” are separate entries in the source; they are usually repeats but may differ in a detail not shown here. Equal entries are not always repeated.
Tests used:
[1] = molecular target: T1, human recombinant MAO-A (Homo sapiens, UniProt P21397); experiment: MAO-A inhibition kinetics (variable substrate, Lineweaver–Burk plot); format: biochemical; design: Michaelis-Menten best-fit Vmax of MAO-A / Michaelis-Menten best-fit Vmax of MAO-A, Average: unit not given here; conditions: for MAO-A assay signal (luminescence) / Transformed (reciprocal of MAO-A assay signal) / Michaelis-Menten best-fit Vmax of MAO-A: N=1-3
T1 construct: purchased Sigma-Aldrich
T1 sequence (P21397 1-527): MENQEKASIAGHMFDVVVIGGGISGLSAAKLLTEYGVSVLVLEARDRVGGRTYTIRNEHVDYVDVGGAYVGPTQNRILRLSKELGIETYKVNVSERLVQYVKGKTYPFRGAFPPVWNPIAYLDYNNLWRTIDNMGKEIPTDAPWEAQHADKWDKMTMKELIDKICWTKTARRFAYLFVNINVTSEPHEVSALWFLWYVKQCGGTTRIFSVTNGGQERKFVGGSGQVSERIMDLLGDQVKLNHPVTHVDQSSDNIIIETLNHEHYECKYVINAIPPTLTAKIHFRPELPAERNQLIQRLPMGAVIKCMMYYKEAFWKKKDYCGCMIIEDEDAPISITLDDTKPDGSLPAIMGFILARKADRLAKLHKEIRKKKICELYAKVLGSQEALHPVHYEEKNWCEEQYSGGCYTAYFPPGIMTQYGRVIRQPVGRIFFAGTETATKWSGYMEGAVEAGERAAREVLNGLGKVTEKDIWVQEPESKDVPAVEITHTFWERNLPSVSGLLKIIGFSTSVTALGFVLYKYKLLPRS
Method: MAO inhibition assays were performed using a MAO-Glo™ Assay kit (Promega) according to the manufacturer’s instructions. Briefly, 1 µg of human recombinant MAO-A and MAO-B enzyme isoforms were incubated with 160 and 16 µM of MAO substrates, respectively. […] The enzyme reaction was quenched by the addition of a luciferin detection reagent. […] An equal volume of dimethyl sulfoxide (0.1%) was added to the enzyme assay as a control. After 1 h of incubation, the luminescence was measured with a multimode microplate reader (Synergy HT, BioTek, Winooski, VT, USA) to determine the MAO enzyme activities. Initially, the inhibition potential of all the test compounds was evaluated at a concentration of 100 μM. The control reaction (with no inhibitor) with vehicle (DMSO 0.1%) was set at 100% activity. To determine IC50 of the test compounds, the dose dependent enzyme assays were performed. We used range of 0.1 to 50 μM concentrations for MAO-A and 0.1 to 200 μM concentrations of test compounds for the MAO-B enzyme activities. The type of enzyme inhibition was determined using variable concentrations of MAO-A substrate (10–360 µM) and MAO-B substrate (2–64 µM) for the respective enzyme assay. […] A Lineweaver–Burk double reciprocal plot was generated, and the mode of inhibition was determined by visual examination of the plot. The slope of the reciprocal plots was plotted against the inhibitor concentrations and determined the x-axis intercept that represented the inhibitor constant, Ki value.
All experiments were performed in triplicates and data are presented as mean ± standard error of the mean (SEM). The raw data are provided in Supplementary Data, Table S1. Enzyme kinetic data were analyzed using the Lineweaver–Burk plot. Statistical analysis was performed by Student’s t-test using GraphPad Prism Ver. 7.0 (GraphPad Prism Software Inc., San Diego, CA, USA).

[2] = design: method as in PMID 31892167; conditions: rats administered pomegranate juice; cited from earlier work
[3] = UroA 3 µM, MAO-A substrate 10 uM
[4] = UroA 3 µM, MAO-A substrate 20 uM
[5] = UroA 3 µM, MAO-A substrate 40 uM
[6] = UroA 3 µM, MAO-A substrate 80 uM
[7] = UroA 3 µM, MAO-A substrate 160 uM
[8] = UroA 3 µM, MAO-A substrate 320 uM
[9] = UroA 12 µM, MAO-A substrate 10 uM
[10] = UroA 12 µM, MAO-A substrate 20 uM
[11] = UroA 12 µM, MAO-A substrate 40 uM
[12] = UroA 12 µM, MAO-A substrate 80 uM
[13] = UroA 12 µM, MAO-A substrate 160 uM

mode of inhibition of MAO-A ([1]; Lineweaver–Burk plot): mixed mode of inhibition
MAO-A assay signal (luminescence), Average [1, 3]: 962.333
MAO-A assay signal (luminescence) [1, 3]: 1018 and 920 and 949
MAO-A assay signal (luminescence), Average [1, 4]: 1760.33
MAO-A assay signal (luminescence) [1, 4]: 1739 and 1707 and 1835
MAO-A assay signal (luminescence), Average [1, 5]: 3218.67
MAO-A assay signal (luminescence) [1, 5]: 3261 and 3188 and 3207
MAO-A assay signal (luminescence), Average [1, 6]: 6181.33
MAO-A assay signal (luminescence) [1, 6]: 6231 and 6107 and 6206
MAO-A assay signal (luminescence), Average [1, 7]: 11480.7
MAO-A assay signal (luminescence) [1, 7]: 11583 and 11575 and 11284
MAO-A assay signal (luminescence), Average [1, 8]: 20098
MAO-A assay signal (luminescence) [1, 8]: 20331 and 20247 and 19716
Transformed (reciprocal of MAO-A assay signal), Average ([1]; UroA 3 µM, [1/S] 0.003125): 4.976e-5
Transformed (reciprocal of MAO-A assay signal) ([1]; UroA 3 µM, [1/S] 0.003125): 4.9186e-5 and 4.939e-5 and 5.072e-5
Transformed (reciprocal of MAO-A assay signal), Average ([1]; UroA 3 µM, [1/S] 0.00625): 8.7103e-5
Transformed (reciprocal of MAO-A assay signal) ([1]; UroA 3 µM, [1/S] 0.00625): 8.633e-5 and 8.639e-5 and 8.862e-5
Transformed (reciprocal of MAO-A assay signal), Average ([1]; UroA 3 µM, [1/S] 0.0125): 0.0001618
Transformed (reciprocal of MAO-A assay signal) ([1]; UroA 3 µM, [1/S] 0.0125): 0.0001605 and 0.0001637 and 0.0001611
Transformed (reciprocal of MAO-A assay signal), Average ([1]; UroA 3 µM, [1/S] 0.025): 0.0003107
Transformed (reciprocal of MAO-A assay signal) ([1]; UroA 3 µM, [1/S] 0.025): 0.0003067 and 0.0003137 and 0.0003118
Transformed (reciprocal of MAO-A assay signal), Average ([1]; UroA 3 µM, [1/S] 0.05): 0.0005681
Transformed (reciprocal of MAO-A assay signal) ([1]; UroA 3 µM, [1/S] 0.05): 0.000575 and 0.0005858 and 0.000545
Transformed (reciprocal of MAO-A assay signal), Average ([1]; UroA 3 µM, [1/S] 0.1): 0.001039
Transformed (reciprocal of MAO-A assay signal) ([1]; UroA 3 µM, [1/S] 0.1): 0.0009823 and 0.001087 and 0.001054
MAO-A assay signal (luminescence), Average [1, 9]: 978.667
MAO-A assay signal (luminescence) [1, 9]: 993 and 1030 and 913
MAO-A assay signal (luminescence), Average [1, 10]: 1695.33
MAO-A assay signal (luminescence) [1, 10]: 1731 and 1673 and 1682
MAO-A assay signal (luminescence), Average [1, 11]: 3058.33
MAO-A assay signal (luminescence) [1, 11]: 3191 and 2983 and 3001
MAO-A assay signal (luminescence), Average [1, 12]: 5849.33
MAO-A assay signal (luminescence) [1, 12]: 5814 and 5864 and 5870
MAO-A assay signal (luminescence), Average [1, 13]: 10871
MAO-A assay signal (luminescence) [1, 13]: 10945 and 10745 and 10923
MAO-A assay signal (luminescence), Average ([1]; UroA 12 µM, MAO-A substrate 320 uM): 12941.7
Transformed (reciprocal of MAO-A assay signal), Average ([1]; UroA 12 µM, [1/S] 0.003125): 7.727e-5
Transformed (reciprocal of MAO-A assay signal) ([1]; UroA 12 µM, [1/S] 0.003125): 8.026e-5 and 7.7238e-5 and 7.452e-5
Transformed (reciprocal of MAO-A assay signal), Average ([1]; UroA 12 µM, [1/S] 0.00625): 9.199e-5
Transformed (reciprocal of MAO-A assay signal) ([1]; UroA 12 µM, [1/S] 0.00625): 9.137e-5 and 9.307e-5 and 9.155e-5
Transformed (reciprocal of MAO-A assay signal), Average ([1]; UroA 12 µM, [1/S] 0.0125): 0.000171
Transformed (reciprocal of MAO-A assay signal) ([1]; UroA 12 µM, [1/S] 0.0125): 0.000172 and 0.0001705 and 0.0001704
Transformed (reciprocal of MAO-A assay signal), Average ([1]; UroA 12 µM, [1/S] 0.025): 0.000327
Transformed (reciprocal of MAO-A assay signal) ([1]; UroA 12 µM, [1/S] 0.025): 0.0003134 and 0.0003352 and 0.0003332
Transformed (reciprocal of MAO-A assay signal), Average ([1]; UroA 12 µM, [1/S] 0.05): 0.0005899
Transformed (reciprocal of MAO-A assay signal) ([1]; UroA 12 µM, [1/S] 0.05): 0.0005777 and 0.0005977 and 0.0005945
Transformed (reciprocal of MAO-A assay signal), Average ([1]; UroA 12 µM, [1/S] 0.1): 0.001022
Transformed (reciprocal of MAO-A assay signal) ([1]; UroA 12 µM, [1/S] 0.1): 0.001007 and 0.0009709 and 0.001095
Michaelis-Menten best-fit Vmax of MAO-A, Average ([1]; in presence of UroA 3 uM): 79114.7
Michaelis-Menten best-fit Vmax of MAO-A ([1]; in presence of UroA 3 uM): 80970 and 83529 and 72845
Michaelis-Menten best-fit Vmax of MAO-A, Average ([1]; in presence of UroA 12 uM): 65883.7
Michaelis-Menten best-fit Vmax of MAO-A ([1]; in presence of UroA 12 uM): 75205 and 61786 and 60660
pKi ([1]; x-axis intercept of slopes of Lineweaver–Burk plots vs inhibitor concentration): 5.00
Compound: O=c1oc2cc(O)ccc2c2ccc(O)cc12 [UA, urolithin-A]
detection in the brain [2]: detected in the brains

From publication PMC7345905, “Microbial Metabolite Urolithin B Inhibits Recombinant Human Monoamine Oxidase A Enzyme” (Metabolites, 2020)
